Converted amounts (≈) assume the structure as drawn. Where two headings read alike, the source gives them in different places.
What was measured:
[1] = molecular target: T1, TYK2-JH2 domain (Homo sapiens, UniProt P29597); assay: Binding activity test for JH2 domain of TYK2 (Tb-antibody/tracer FRET); settings: for JAK1/TYK2 selectivity: ratio JAK1-JH2 IC50 / TYK2-JH2 IC50
T1 construct: IC50 on JH2 domain activity (nM)
Method in brief: (§1)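 FRET read-out after 60 min at 25° C plus overnight at 4° C; tracer displacement detected via Tb-labelled antibody on the JH2 domain. Dose-response used 11 points at 3-fold dilution.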

[2] = molecular target: T2, JAK1-JH2 domain (Homo sapiens, UniProt P23458); assay: Binding activity test for JH2 domain of JAK1 (Tb-antibody/tracer FRET)
T2 construct: IC50 on JH2 domain activity (nM)
Method in brief: as §1

[3] = system: pSTAT1; assay: Phosphorylation inhibition of STAT in human whole blood, IFN-alpha stimulated (flow cytometry); format: cell-based; settings: 20 min; human whole blood, IFN-alpha 20 mins, CD3 cells; read-out: IC50 on pSTAT1 inhibition in h WB
Method in brief: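 Readout is pSTAT1 (Y701) in CD3-stained cells by flow cytometry, with IC50 derived from a 4-parameter logistic equation. Fresh human PBMC or fresh whole blood received a 20-min Universal Type I IFN-alpha stimulation before fixation and cold permeabilization.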

[4] = Microsomal metabolic stability assay; format: in vitro ADME; settings: pH 7.4, 0.5 mg/mL protein, 1 μM compound
Method in brief: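 Parent loss was tracked by LC/MS/MS at 0, 5, 15, 30 and 45 min, with half-life derived from the ln(% remaining)–time slope. Incubation at 37 °C, pH 7.4 phosphate/EDTA buffer: 0.5 mg/mL microsomes, 1 μM compound, NADPH-regenerated (2 mM).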

[5] = Plasma protein binding by equilibrium dialysis; format: in vitro ADME; settings: human plasma, equilibrium dialysis 5 hours at 37° C.; read-out: % Bound (human) (converted)
Method: Plasma Protein Binding by Equilibrium Dialysis
Aliquots of test compound stock solution and warfarin stock solution were spiked into plasma to give the matrix solutions with theoretical concentrations of test compound at 0.2 and 2 μM or warfarin at 2 μM. Immediately transfer 50 μL of the spiked plasma solution suspension to a 96-well plate to act as T=0 control sample. Assemble the dialysis set up following the manufacturer's instructions. Load cells with 150 μL of plasma sample and dialyzed against equal volume of dialysis buffer (PBS). The assay is performed in duplicate. Cover the unit with gas permeable lid and incubate for 5 hours at 37° C. at 100 rpm in a constant temperature shaking box. At the end of incubation, remove lid and pipette 50 μL of post-dialysis samples from both buffer and plasma solution chambers into separated 96-well plate for analysis, respectively. Add 50 μL of plasma solution to the buffer samples, and an equal volume of PBS to the collected plasma solution samples. Shake the plate at 1000 rpm for 2 minutes and add 600 μL of 50% ACN/MeOH containing an appropriate internal standard (IS) to precipitate protein and release compound. Vortex at 1000 rpm for 10 minutes. Centrifuge for 10 minutes at 4000 rpm. Then transfer 75 μL of the supernatant to new 96-well plates for analysis. Add 150 μL of distilled water to each sample and mix for analysis by LC-MS/MS.
The free rate (% Unbound), binding rate (% Bound), and recovery rate (% Recovery) of the compound are calculated as follows: […]

[6] = Kinetic solubility; format: physicochemical; settings: phosphate buffer, aqueous buffer, kinetic from dmso stock, PBS (pH 7.4), 1% DMSO, room temperature
Method: Aliquots of 8 μL of reference and test compound stock solutions (10 mM/5 mM) are added into 792 μL of 100 mM pH 7.4 phosphate buffer. The final DMSO concentration is 1%. Sample tubes are shaken for 2 hours at 1000 rpm at room temperature. Samples are centrifuged at 12000 rpm for 10 min to precipitate un-dissolved particles. And transfer the supernatants to a new tube or plate. Add 5 μL of samples (no diluted, 10 times diluted and 100 times diluted) and standard curve samples to 95 μL of ACN containing IS for LC-MS/MS analysis.

[7] = molecular target: T3, Ba/F3-FL-TYK2-P760L cells (Homo sapiens, UniProt P29597, P760L, cells depend on it); assay: Anti-proliferative assay, Ba/F3-FL-TYK2-P760L cells (Cell-Titer Glo); format: cell-based; settings: 72 h, read-out: BaF3-FL-T2P760L IC50
T3 construct: BaF3-FL-T2P760L (nM)
Method in brief: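 Compound exposure ran 72 h at 37 °C in 5% CO2 across nine 3-fold concentrations from a 20 μM top dose, added 24 h after seeding 2000 cells/well.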

[8] = molecular target: T4, Ba/F3-TEL-TYK2 cells (Homo sapiens, UniProt P29597); assay: Anti-proliferative assay, Ba/F3-TEL-TYK2 cells (Cell-Titer Glo); format: cell-based; settings: 72 h, read-out: BaF3-TEL-TYK2 IC50
T4 construct: fused on or other part: Dimerization domain of TEL (ETV6) fused to the TYK2 kinase domain; P41212 (Transcription factor ETV6)
Method: (§2) Anti-Proliferative Assay Dimerization domain of Tel protein fused with JAK kinase domain was permanently transduced into Ba/F3 cells, whose proliferation is dependent on JAK activity in the absence of IL-3 induction. These engineered Ba/F3 cells (Ba/F3-FL-TYK2-[…], Ba/F3-TEL-TYK2 and Ba/F3-TEL-JAK2) were used to monitor JAK inhibitory activities of the compounds in the cellular. […] Cells were seeded at 2000/well of white flat bottom 96-well plates. The well containing medium only was used as background control. After 24 h growth, cells were treated with compounds. The test compounds were dissolved in DMSO to a stock concentration of 20 mM. 3-fold serially diluted compounds for 9 concentrations with top concentration of 20 μM was added into the each well. […] The cells continued to grow at 37° C. in 5% CO2 for 72 h after compound treatment. The viability was measured by cellular ATP determination using the Cell-Titer Glo luciferase reagent (Promega). The Luminescence value was recorded by a multi-label reader Envision (PerkinElmer).

[9] = molecular target: T5, Ba/F3-TEL-JAK2 cells (Homo sapiens, UniProt O60674); assay: Anti-proliferative assay, Ba/F3-TEL-JAK2 cells (Cell-Titer Glo); format: cell-based; settings: 72 h, read-out: BaF3-TEL-JAK2 IC50
T5 construct: fused on or other part: Dimerization domain of TEL (ETV6) fused to the JAK2 kinase domain; P41212 (Transcription factor ETV6)
Method: as §2

[10] = molecular target: T6, JAK1 (Homo sapiens, UniProt P23458); assay: JAK1 kinase activity, microfluidic assay (Caliper EZ Reader II); format: biochemical; settings: JAK1 5 nM, 1 mM ATP
T6 construct: purchased Carna Biosciences
Method: (§3) Testing for JAK1, JAK2 and TYK2 Kinase Activities
(§4) JAK activity was determined in the reaction buffer 50 mM HEPES, 0.01% Brij35, 10 mM MgCl2, 2 mM DTT by a microfluidic assay. The phosphorylation of a FAM labeled peptide substrate was monitored in the Caliper EZ Reader II (Perkin Elmer). The assay condition for each batch of enzyme (Carna Biosciences) was optimized to obtain 10% conversion rate of peptide substrate.
(§5) The test compounds were dissolved in DMSO to a stock concentration of 10 mM. Three-fold serially diluted compounds with top concentration of 5 μM were pre-incubated with JAK1, JAK2 or TYK2 for 10 min at ambient temperature. The final DMSO concentration of assay mixture was 1%. […] The reaction was stopped by adding 50 mM EDTA.
(§6) The percent inhibition was calculated by the following formula:
(§7) [formula] • wherein • Conversion %_max=the conversion rate in the positive well without addition of compound • Conversion %_sample=the conversion rate of test compounds • Conversion %_min=the conversion rate in the well without addition of enzyme
(§8) The dose-response (percent inhibition) curve was plotted and IC50 values were determined by GraphPad software.

[11] = molecular target: T7, JAK2 (Homo sapiens, UniProt O60674); assay: JAK2 kinase activity, microfluidic assay (Caliper EZ Reader II); format: biochemical; settings: JAK2 0.125 nM, 1 mM ATP
T7 construct: purchased Carna Biosciences
Method: as §3, §4, §5, §6, §7, §8

[12] = molecular target: T8, TYK2 (Homo sapiens, UniProt P29597); assay: TYK2 kinase activity, microfluidic assay (Caliper EZ Reader II); format: biochemical; settings: TYK2 1 nM, 1 mM ATP
T8 construct: purchased Carna Biosciences
Method: as §3, §4, §5, §6, §7, §8

[13] = dog liver microsomes, read-out: Dog LM Clint
[14] = dog liver microsomes, read-out: Dog LM T½
[15] = human liver microsomes, read-out: Human LM Clint
[16] = human liver microsomes, read-out: Human LM T½
[17] = rat liver microsomes, read-out: Rat LM Clint
[18] = rat liver microsomes, read-out: Rat LM T½

T4 sequence (P29597 whole entry, change not shown, the tested form may be a part): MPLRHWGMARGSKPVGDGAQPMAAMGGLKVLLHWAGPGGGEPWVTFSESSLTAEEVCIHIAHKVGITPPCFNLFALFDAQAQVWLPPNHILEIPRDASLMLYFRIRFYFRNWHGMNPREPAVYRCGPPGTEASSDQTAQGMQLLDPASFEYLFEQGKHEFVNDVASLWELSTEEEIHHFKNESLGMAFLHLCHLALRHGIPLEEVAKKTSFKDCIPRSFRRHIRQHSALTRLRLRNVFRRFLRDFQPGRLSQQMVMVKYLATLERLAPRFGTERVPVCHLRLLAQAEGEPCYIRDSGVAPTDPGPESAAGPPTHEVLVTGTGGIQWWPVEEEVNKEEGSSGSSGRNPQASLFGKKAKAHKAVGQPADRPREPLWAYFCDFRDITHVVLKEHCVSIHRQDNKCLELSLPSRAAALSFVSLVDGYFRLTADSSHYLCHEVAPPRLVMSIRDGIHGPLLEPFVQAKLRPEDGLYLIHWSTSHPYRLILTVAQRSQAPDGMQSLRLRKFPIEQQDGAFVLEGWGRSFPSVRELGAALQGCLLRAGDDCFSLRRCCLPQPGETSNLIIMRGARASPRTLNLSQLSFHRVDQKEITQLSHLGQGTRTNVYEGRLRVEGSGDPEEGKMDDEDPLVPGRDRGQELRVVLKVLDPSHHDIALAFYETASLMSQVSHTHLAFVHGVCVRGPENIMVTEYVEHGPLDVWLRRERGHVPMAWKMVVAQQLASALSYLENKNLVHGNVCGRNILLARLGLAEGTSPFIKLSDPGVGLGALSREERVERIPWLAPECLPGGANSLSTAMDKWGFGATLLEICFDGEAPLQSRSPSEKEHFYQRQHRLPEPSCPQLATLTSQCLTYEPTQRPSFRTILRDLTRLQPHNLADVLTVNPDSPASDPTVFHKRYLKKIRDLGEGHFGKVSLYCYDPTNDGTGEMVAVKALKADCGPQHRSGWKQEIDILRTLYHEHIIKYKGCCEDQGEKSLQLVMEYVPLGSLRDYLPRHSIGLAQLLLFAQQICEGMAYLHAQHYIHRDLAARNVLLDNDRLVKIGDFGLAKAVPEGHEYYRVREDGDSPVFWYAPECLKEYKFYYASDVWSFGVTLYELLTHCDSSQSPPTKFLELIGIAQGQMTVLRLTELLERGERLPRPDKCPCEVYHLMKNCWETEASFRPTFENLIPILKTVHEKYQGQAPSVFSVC
T2 sequence (P23458 583-855 limits assumed): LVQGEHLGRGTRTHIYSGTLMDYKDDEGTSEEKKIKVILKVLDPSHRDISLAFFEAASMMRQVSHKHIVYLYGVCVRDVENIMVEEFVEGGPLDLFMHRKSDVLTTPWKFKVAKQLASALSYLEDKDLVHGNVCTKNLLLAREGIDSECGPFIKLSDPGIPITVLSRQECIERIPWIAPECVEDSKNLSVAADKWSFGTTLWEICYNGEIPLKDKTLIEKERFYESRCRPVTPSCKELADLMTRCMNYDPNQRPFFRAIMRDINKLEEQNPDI
T3 sequence (P29597 whole entry P760L): as the sequence (P29597 whole entry, change not shown, the tested form may be a part) above, with P760L counted along it
T1 sequence (P29597 589-875 limits assumed): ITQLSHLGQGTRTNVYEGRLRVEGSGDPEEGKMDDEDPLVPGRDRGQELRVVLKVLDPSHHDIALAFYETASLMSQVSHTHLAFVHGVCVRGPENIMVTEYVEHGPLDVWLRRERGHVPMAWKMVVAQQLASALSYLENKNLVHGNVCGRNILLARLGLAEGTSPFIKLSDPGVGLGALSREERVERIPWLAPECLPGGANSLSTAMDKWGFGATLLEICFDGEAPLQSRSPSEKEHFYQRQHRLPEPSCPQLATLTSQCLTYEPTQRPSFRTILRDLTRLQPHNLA
T5 sequence (O60674 whole entry, change not shown, the tested form may be a part): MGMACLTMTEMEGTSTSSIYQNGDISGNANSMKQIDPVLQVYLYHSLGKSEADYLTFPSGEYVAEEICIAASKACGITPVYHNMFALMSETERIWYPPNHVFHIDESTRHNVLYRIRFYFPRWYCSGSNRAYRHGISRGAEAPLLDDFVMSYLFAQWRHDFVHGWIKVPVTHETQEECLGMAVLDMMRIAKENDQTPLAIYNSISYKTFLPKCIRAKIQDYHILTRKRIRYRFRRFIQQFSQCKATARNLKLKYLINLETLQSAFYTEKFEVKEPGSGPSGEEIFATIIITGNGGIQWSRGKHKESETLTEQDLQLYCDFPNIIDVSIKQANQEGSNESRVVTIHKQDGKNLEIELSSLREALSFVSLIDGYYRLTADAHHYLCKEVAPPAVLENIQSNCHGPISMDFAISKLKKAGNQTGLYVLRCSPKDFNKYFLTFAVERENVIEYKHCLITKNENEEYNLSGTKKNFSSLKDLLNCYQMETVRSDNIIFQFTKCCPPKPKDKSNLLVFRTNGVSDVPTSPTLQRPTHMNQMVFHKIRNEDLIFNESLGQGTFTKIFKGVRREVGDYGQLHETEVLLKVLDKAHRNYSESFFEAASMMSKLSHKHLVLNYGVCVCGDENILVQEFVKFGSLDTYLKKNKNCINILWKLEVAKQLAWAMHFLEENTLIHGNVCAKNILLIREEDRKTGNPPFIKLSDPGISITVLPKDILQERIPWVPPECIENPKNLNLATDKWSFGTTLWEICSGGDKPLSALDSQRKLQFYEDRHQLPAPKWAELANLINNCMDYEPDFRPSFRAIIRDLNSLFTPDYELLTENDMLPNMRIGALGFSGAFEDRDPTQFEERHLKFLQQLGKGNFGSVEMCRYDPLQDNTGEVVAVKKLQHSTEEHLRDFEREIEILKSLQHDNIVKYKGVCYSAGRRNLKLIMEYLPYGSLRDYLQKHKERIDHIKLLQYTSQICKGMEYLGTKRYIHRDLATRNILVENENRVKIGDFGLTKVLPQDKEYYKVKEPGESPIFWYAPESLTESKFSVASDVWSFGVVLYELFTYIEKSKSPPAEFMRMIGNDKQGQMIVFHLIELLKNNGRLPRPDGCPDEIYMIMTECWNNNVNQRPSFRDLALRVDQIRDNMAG
T8 sequence (P29597 whole entry): as the sequence (P29597 whole entry, change not shown, the tested form may be a part) above
T6 sequence (P23458 whole entry): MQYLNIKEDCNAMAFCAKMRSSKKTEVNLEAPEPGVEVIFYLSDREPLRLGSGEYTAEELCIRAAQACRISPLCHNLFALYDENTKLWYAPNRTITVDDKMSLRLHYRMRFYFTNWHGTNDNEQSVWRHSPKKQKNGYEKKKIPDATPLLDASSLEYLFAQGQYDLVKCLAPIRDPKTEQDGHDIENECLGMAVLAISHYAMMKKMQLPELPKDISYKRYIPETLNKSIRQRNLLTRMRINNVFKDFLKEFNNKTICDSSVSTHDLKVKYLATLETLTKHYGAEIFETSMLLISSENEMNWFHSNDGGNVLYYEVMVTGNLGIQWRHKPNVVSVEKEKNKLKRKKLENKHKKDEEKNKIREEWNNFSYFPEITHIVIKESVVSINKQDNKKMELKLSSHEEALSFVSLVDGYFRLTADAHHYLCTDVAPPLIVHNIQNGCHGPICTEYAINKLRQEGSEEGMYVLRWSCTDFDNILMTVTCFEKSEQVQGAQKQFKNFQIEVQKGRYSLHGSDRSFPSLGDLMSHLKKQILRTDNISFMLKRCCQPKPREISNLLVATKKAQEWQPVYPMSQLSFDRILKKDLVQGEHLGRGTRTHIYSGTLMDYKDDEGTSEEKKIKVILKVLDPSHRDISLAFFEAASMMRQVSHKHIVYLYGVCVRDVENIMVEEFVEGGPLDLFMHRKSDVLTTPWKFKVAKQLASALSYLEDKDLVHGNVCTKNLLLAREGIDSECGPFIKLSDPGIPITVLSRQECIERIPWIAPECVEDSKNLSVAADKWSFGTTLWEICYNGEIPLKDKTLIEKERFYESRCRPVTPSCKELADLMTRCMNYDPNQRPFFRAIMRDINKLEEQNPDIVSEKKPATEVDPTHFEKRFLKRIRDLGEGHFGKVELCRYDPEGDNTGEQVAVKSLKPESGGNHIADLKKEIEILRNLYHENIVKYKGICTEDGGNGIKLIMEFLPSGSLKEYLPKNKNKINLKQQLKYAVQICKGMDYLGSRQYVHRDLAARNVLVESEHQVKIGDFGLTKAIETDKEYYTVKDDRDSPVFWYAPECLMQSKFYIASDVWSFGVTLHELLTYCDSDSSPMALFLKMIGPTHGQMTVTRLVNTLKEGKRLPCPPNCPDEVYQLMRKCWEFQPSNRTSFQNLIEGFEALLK
T7 sequence (O60674 whole entry): as the sequence (O60674 whole entry, change not shown, the tested form may be a part) above

IC50 [1]	JAK1/TYK2 selectivity [1]	IC50 [2]	fraction unbound at 5 h [5]	solubility at 2 h [6]	GI50 [7]	GI50 [8]	GI50 [9]	Structure (SMILES)	also measured
0.000521 µM	46.7	0.0244 µM	0.123	29.9 µM (≈ 14.4 µg/mL)				[2H]C([2H])([2H])NC(=O)c1cnc(NC(=O)C2CC2)cc1Nc1cn(C)c2ncn([C@H](C)C(F)(F)F)c(=O)c12 (single isomer, unassigned) [Example 234A, (R*)-6-(cyclopropanecarboxamido)-N-(methyl-d3)-4-((7-methyl-4-oxo-3-(1,1,1-trifluoropropan-2-yl)-4,7-dihydro-3H-pyrrolo[2,3-d]pyrimidin-5-yl)amino)nicotinamide]	IC50 [3]: 0.495 µM; microsomal CLint at 1 μM [4, 13]: 10.9 µL/min/mg; half-life at 1 μM [4, 14]: 127 min; microsomal CLint at 1 μM [4, 15]: 24.3 µL/min/mg; half-life at 1 μM [4, 16]: 57 min; microsomal CLint at 1 μM [4, 17]: 35.3 µL/min/mg; half-life at 1 μM [4, 18]: 39.3 min
					0.0707 µM	5.44 µM	2.3 µM	[2H]C([2H])([2H])NC(=O)c1cnc(Nc2ccc(Cl)cc2)nc1Nc1cccc(-c2ncn(C)n2)c1OC [Example 3, 2-((4-Chlorophenyl)amino)-4-((2-methoxy-3-(1-methyl-1H-1,2,4-triazol-3-yl)phenyl)amino)-N-(methyl-d3) pyrimidine-5-carboxamide]	
					0.157 µM	> 20 µM	7.47 µM	CCC(=O)c1cnc(Nc2ccc(F)cc2)nc1Nc1cccc(-c2ncn(C)n2)c1OC [Example 8, 1-(2-((4-Fluorophenyl)amino)-4-((2-methoxy-3-(1-methyl-1H-1,2,4-triazol-3-yl)phenyl)amino)pyrimidin-5-yl)propan-1-one]	
					0.0236 µM	> 20 µM	> 20 µM	CNC(=O)c1cnc(Nc2ccc(F)cn2)cc1Nc1csc2ccn(C)c(=O)c12 [Example 15, 6-((5-Fluoropyridin-2-yl)amino)-N-methyl-4-((5-methyl-4-oxo-4,5-dihydrothieno[3,2-c]pyridin-3-yl)amino)nicotinamide]	
					0.125 µM	7.18 µM	4.35 µM	CNC(=O)c1cnc2cc1Nc1cc(cc(-c3ncn(C)n3)c1OC)COCc1cccc(n1)N2 [Example 34, 10-Methoxy-N-methyl-11-(1-methyl-1,2,4-triazol-3-yl)-15-oxa-2,4,8,21-tetrazatetracyclo[15.3.1.13,7.19,13]tricosa-1(21),3(23),4,6,9,11,13(22),17,19-nonaene-6-carboxamide]	
0.00033 µM	40.2	0.0133 µM	0.046	32.1 µM (≈ 14.4 µg/mL)	0.0654 µM			[2H]C([2H])([2H])NC(=O)c1cnc(NC(=O)C2CC2)cc1Nc1ccc2cnn(CC(F)F)c2c1OC [Example 131, 6-(Cyclopropanecarboxamido)-4-((1-(2,2-difluoroethyl)-7-methoxy-1H-indazol-6-yl)amino)-N-(methyl-d3)nicotinamide]	microsomal CLint at 1 μM [4, 13]: 65.8 µL/min/mg; half-life at 1 μM [4, 14]: 21.1 min; microsomal CLint at 1 μM [4, 15]: 95 µL/min/mg; half-life at 1 μM [4, 16]: 14.6 min; microsomal CLint at 1 μM [4, 17]: 109 µL/min/mg; half-life at 1 μM [4, 18]: 12.8 min
0.000623 µM	17.6	0.011 µM	0.07	28.7 µM (≈ 11.4 µg/mL)	0.0685 µM			[2H]C([2H])([2H])NC(=O)c1cnc(NC(=O)C2CC2)cc1Nc1ccc2cnn(C)c2c1OC [Example 206, 6-(Cyclopropanecarboxamido)-4-((7-methoxy-1-methyl-1H-indazol-6-yl)amino)-N-(methyl-d3)nicotinamide]	
0.000407 µM			0.039	8.45 µM (≈ 3.24 µg/mL)	0.149 µM			[2H]C([2H])([2H])NC(=O)c1cnc(NC(=O)C2CC2)cc1Nc1ccc2cn[nH]c2c1OC [Example 207, 6-(Cyclopropanecarboxamido)-4-((7-methoxy-1H-indazol-6-yl)amino)-N-(methyl-d3)nicotinamide]	
0.000956 µM	47.4	0.0454 µM	0.085	58 µM (≈ 23.8 µg/mL)	0.113 µM			CCn1ncc2cnc(Nc3cc(NC(=O)C4CC4)ncc3C(=O)NC)c(OC)c21 [Example 261, 6-(Cyclopropanecarboxamido)-4-((1-ethyl-7-methoxy-1H-pyrazolo[4,3-c]pyridin-6-yl)amino)-N-methylnicotinamide]	IC50 [10]: > 5 µM; IC50 [11]: > 5 µM; IC50 [12]: > 5 µM
